Laboratory results published in article PMC10167348, “Structural mechanisms of TRPM7 activation and inhibition” (Nature Communications, 2023).

Columns and labels:
TRPM7 WT = molecular target: T1, TRPM7 WT (Mus musculus, UniProt Q923J1); test: Aequorin-based Ca2+ influx assay, inhibition of TRPM7-mediated Ca2+ influx; assay type: cell-based
T1 construct: expressed in transfected cells; host or cells: HEK 293T
Experimental: (§1) Measurements of [Ca^2+]i were performed as reported previously with several modifications[2],[52],[54]. HEK 293T cells (mycoplasma test negative, ATCC #CRL3216) were maintained at 37 °C and 5% CO2 in DMEM supplemented with 10% fetal calf serum, 100 µg/ml streptomycin and 100 U/ml penicillin (all from Thermo Fisher Scientific). Cells cultured in six-well plates (~60% confluence) were transfected with 2 µg/dish Trpm7 plasmid DNA and 0.1 µg/dish pG5A plasmid DNA encoding eGFP fused to Aequorea victoria aequorin, using Lipofectamine 2000 (Thermo Fisher Scientific). Twenty-four hours after transfection, the cells were washed with Mg^2+-free HEPES-buffered saline (Mg^2+-free HBS) containing 140 mM NaCl, 6 mM KCl, 0.5 mM CaCl2, 10 mM HEPES (pH 7.4) and 5 mM glucose, and mechanically resuspended in the Mg^2+-free HBS. For reconstitution of aequorin, cell suspensions were incubated with 5 µM coelenterazine (Biaffin GmbH) in the Mg^2+-free HBS for 30 min at room temperature. Cells were washed twice by centrifugation at 600 rpm for 5 min (Heraeus Pico 17 microcentrifuge, Thermo Fisher Scientific), resuspended in the Mg^2+-free HBS and aliquoted into 96-well plates (1 × 10^5 cells per well). Luminescence was detected at room temperature using a FLUOstar OPTIMA microplate reader (BMG LABTECH GmbH). To monitor the NS8593- and VER155008-induced inhibition of TRPM7-mediated Ca^2+ influx, the extracellular concentration of Ca^2+ was increased to 5 mM by injecting the CaCl2-containing Mg^2+-free HBS in the absence or presence of the inhibitors. […] To study activation by naltriben, TRPM7-transfected cells were exposed to Mg^2+-free HBS containing different concentrations of the agonist. The experiments were terminated by lysing cells with 0.1% (v/v) Triton X-100 in the Mg^2+-free HBS to record the total bioluminescence. The bioluminescence rates (counts/s) were analyzed at 1-s intervals and calibrated as [Ca^2+]i values using the following equation:1 p[Ca^2+]i=0.332588(−log(k))+5.5593 where k represents the rate of aequorin consumption, i.e., counts/s divided by the total number of counts.
(§2) To determine the IC50 values for NS8593 and VER155008 (EC50 for naltriben), the data were fitted with the following logistic equation:2 Ec=Emin+Emax+Emin/1+c^h/IC50^h where E(c) is the functional effect at the concentration c of the compound, Emin is the minimal effect, Emax is the maximal effect, IC50 (EC50) is the concentration of the compound that produces the half-maximal effect, and h is the Hill coefficient. Fitting of dose-response curves was performed using GraphPad Prism 8.4.0. Data are presented as the mean ± SEM.

TRPM7-W1111A = molecular target: T2, TRPM7-W1111A (Mus musculus, UniProt Q923J1, W1111A); test: as above; assay type: cell-based
T2 construct: expressed in transfected cells; host or cells: HEK 293T
T2 sequence (Q923J1 whole entry W1111A): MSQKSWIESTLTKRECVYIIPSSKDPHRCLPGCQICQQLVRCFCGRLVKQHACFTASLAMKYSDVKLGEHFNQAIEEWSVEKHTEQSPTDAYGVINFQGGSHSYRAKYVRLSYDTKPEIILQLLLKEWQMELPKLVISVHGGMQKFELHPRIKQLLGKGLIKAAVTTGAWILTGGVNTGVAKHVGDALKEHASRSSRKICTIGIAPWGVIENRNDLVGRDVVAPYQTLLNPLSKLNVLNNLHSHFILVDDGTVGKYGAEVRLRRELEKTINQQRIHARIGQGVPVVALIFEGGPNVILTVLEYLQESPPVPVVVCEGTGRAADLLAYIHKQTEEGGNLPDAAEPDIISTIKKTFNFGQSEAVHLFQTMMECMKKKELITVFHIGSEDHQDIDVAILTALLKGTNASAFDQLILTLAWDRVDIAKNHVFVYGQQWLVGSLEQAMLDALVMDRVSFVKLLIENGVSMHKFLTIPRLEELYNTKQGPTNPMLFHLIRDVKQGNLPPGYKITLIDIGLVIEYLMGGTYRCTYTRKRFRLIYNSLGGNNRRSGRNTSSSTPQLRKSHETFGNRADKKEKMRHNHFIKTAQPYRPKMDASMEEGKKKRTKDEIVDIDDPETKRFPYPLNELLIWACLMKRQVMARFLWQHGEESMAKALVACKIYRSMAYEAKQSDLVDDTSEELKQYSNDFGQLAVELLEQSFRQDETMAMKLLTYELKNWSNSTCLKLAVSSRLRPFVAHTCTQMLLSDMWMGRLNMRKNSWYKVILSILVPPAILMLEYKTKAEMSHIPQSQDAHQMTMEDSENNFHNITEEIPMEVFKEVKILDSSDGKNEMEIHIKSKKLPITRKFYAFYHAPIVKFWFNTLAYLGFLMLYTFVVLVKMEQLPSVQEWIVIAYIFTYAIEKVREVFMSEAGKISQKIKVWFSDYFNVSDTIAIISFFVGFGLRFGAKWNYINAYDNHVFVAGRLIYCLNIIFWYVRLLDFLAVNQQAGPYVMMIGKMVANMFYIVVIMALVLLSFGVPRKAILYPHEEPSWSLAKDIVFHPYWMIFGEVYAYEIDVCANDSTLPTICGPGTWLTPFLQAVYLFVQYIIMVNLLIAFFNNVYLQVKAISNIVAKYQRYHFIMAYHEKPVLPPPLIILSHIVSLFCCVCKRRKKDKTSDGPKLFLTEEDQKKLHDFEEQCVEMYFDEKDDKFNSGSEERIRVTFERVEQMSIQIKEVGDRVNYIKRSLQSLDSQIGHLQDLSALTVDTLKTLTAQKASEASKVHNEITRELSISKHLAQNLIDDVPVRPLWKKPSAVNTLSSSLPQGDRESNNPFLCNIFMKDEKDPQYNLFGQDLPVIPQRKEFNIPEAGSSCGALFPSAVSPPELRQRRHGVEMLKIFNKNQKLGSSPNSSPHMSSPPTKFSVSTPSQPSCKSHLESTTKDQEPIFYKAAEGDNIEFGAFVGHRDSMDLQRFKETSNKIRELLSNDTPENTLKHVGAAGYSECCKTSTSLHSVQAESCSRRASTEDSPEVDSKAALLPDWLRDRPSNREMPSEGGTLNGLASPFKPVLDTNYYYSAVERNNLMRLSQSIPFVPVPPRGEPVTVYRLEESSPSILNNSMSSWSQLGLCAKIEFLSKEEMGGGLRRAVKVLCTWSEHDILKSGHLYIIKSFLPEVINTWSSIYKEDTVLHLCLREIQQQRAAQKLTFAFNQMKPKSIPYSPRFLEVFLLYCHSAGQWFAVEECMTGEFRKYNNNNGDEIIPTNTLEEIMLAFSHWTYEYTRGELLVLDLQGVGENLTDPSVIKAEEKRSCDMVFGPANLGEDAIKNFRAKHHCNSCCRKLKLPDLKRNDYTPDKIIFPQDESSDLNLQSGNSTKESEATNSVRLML
Experimental: as §1, §2

[1] = Solubility of the compound (authors' remark); settings: mM range could not be examined
TRPM7-L671A = molecular target: T3, TRPM7-L671A (Mus musculus, UniProt Q923J1, L671A); test: Whole-cell patch-clamp recordings in HEK 293T cells; assay type: cell-based; settings: 50 and 100 μM NTB
T3 construct: expressed in transfected cells; host or cells: HEK 293T
T3 sequence (Q923J1 whole entry L671A): as the sequence (Q923J1 whole entry W1111A) above, with L671A, A1111W counted along it
Experimental: (§3) Patch-clamp experiments were performed as reported previously, with a few modifications[69],[70]. HEK 293T cells grown in 35-mm dishes to ~60% confluence were transiently transfected with Trpm7 cDNAs in the pIRES2-EGFP vector (2 µg/dish). Patch-clamp experiments were conducted 18–22 h after transfection with cells displaying EGFP fluorescence. Whole-cell currents were recorded using an EPC10 patch-clamp amplifier and PatchMaster software (Version V2x69, Harvard Bioscience). Voltages were corrected for a liquid junction potential of 10 mV. Currents were elicited by voltage ramps from –100 mV to +100 mV over 50 ms acquired at 0.5 Hz. The inward and outward current amplitudes were measured at –80 mV and +80 mV and were normalized to the cell size as pA/pF. The capacitance was measured using the automated capacitance cancellation function of EPC10. The standard extracellular solution contained 140 mM NaCl, 2.8 mM KCl, 1 mM CaCl2, 2 mM MgCl2, 10 mM HEPES-NaOH, and 11 mM glucose (all from Sigma-Aldrich). Solutions were adjusted to pH 7.2 using an FE20 pH meter (Mettler Toledo) and to 290 mOsm using a Vapro 5520 osmometer (Wescor Inc). […] For the experiment with naltriben, the intracellular solution contained 120 mM Cs-glutamate, 8 mM NaCl, 10 mM Cs-EGTA, 1.5 mM MgCl2, and 10 mM HEPES-CsOH. The intracellular solution was also adjusted to pH 7.2 and 290 mOsm. Data are presented as the mean ± SEM Unless indicated otherwise, data were compared by unpaired t-test (GraphPad Prism 8.4.0). For multiple comparisons, ordinary one-way ANOVA (GraphPad Prism 8.4.0) was used. Significance was accepted at P ≤ 0.05.

TRPM7-N752K = molecular target: T4, TRPM7-N752K (Mus musculus, UniProt Q923J1, N752K); test: as above; assay type: cell-based; settings: 50 and 100 μM NTB
T4 construct: expressed in transfected cells; host or cells: HEK 293T
T4 sequence (Q923J1 whole entry N752K): as the sequence (Q923J1 whole entry W1111A) above, with N752K, A1111W counted along it
Experimental: as §3

[2] = [NS8593] 7.0 µM, replicate values, read-out: TRPM7 activity, 100%

T1 sequence (Q923J1 whole entry): as the sequence (Q923J1 whole entry W1111A) above, with A1111W counted along it

| Structure (SMILES) | remaining activity at 7 µM (TRPM7 WT; [2]) | remaining activity at 30 µM (TRPM7 WT; [NS8593] 30.0 µM, replicate values, read-out: TRPM7 activity, 100%) | remaining activity at 50 µM (TRPM7 WT; [NS8593] 50.0 µM, replicate values, read-out: TRPM7 activity, 100%) | Hill coefficient (TRPM7 WT; antagonist, mean ± SEM) | IC50 (TRPM7 WT; antagonist, mean ± SEM) | remaining activity at 0.5 µM (TRPM7-W1111A; [NS8593] 0.5 µM, replicate values, read-out: TRPM7 activity, 100%) | remaining activity at 0.7 µM (TRPM7-W1111A; [NS8593] 0.7 µM, replicate values, read-out: TRPM7 activity, 100%) | remaining activity at 1 µM (TRPM7-W1111A; [NS8593] 1.0 µM, replicate values, read-out: TRPM7 activity, 100%) | remaining activity at 3 µM (TRPM7-W1111A; [NS8593] 3.0 µM, replicate values, read-out: TRPM7 activity, 100%) | remaining activity at 7 µM (TRPM7-W1111A; [2]) | Hill coefficient (TRPM7-W1111A; antagonist, mean ± SEM) | IC50 (TRPM7-W1111A; antagonist, mean ± SEM) | solubility [1] | sensitivity of TRPM7 currents to agonist, mutant vs WT (TRPM7-L671A) | sensitivity of TRPM7 currents to agonist, mutant vs WT (TRPM7-N752K) |
| --- | --- | --- | --- | --- | --- | --- | --- | --- | --- | --- | --- | --- | --- | --- | --- |
| c1ccc2c(c1)CCC[C@H]2Nc1nc2ccccc2[nH]1 [NS8593] | 0% | 0% | 0% | –1.73 ± 0.26 | 0.91 ± 0.08 µM | 103% | 103% | 98.1% | 62.5% | 50.3% | –1.54 ± 0.24 | 5.14 ± 0.45 µM | – | – | – |
| Oc1ccc2c3c1O[C@H]1c4oc5ccccc5c4C[C@@]4(O)[C@@H](C2)N(CC2CC2)CC[C@]314 [Naltriben, naltriben] | – | – | – | – | – | – | – | – | – | – | – | – | limited solubility | reduced sensitivity | reduced sensitivity |
